Data set [1] deals with human cervical squamous cell carcinoma cell line SiHa. The data set can be described thus: CCK-8 cytotoxicity assay, SiHa cells. The format is cell-based. The following applies: CCK-8, 48 h incubation, mean ± SD, n = 3. How it is done:
(§1) The SiHa, K562, B16 and HK-2 cells were obtained from Wuhan Pricella Biotechnology Co., Ltd. (Wuhan, China). […] 2–5 × 10^3 cells were added to each well of a 96-well plate and incubated for 12 h, followed by the addition of the tested compounds. After incubation for 48 h, 10 μL of the CCK-8 solution was added to each well and incubated for another 2 h. The absorbance of each well was measured at 450 nm using an enzyme-linked immunosorbent assay (ELISA) reader. The experiments were replicated three times. The inhibition rate of cancer cells was calculated using the Formula (1). The half-maximal inhibitory concentration (IC50) value was calculated using GraphPad Prism 8.0 software.

For data set [2], the system named is human chronic myeloid leukemia cell line K562. The data set can be described thus: CCK-8 cytotoxicity assay, K562 cells. The format is cell-based. Particulars: CCK-8, 48 h incubation, mean ± SD, n = 3. How it is done: as §1
For data set [3], the system named is mouse melanoma cell line B16. Kind of data set: CCK-8 cytotoxicity assay, B16 cells. Particulars: CCK-8, 48 h incubation, mean ± SD, n = 3. The format is cell-based. As to the method: as §1
The nature of data set [4]: CCK-8 cytotoxicity assay, HK-2 cells. Type of data set: cell-based, human. How it is done:
as §1, with “The cytotoxicity of synthesized compounds against HK-2 cells was also detected. […] The SiHa,” for “The SiHa,”

For data set [5], the system named is human renal epithelial cell line HK-2. The data set can be described thus: CCK-8 cytotoxicity assay, HK-2 cells. The format is cell-based. Particulars: Homo sapiens, Epithelial cell; CCK-8, 48 h incubation, mean ± SD, n = 3. How it is done:
as §1, with “The cytotoxicity of synthesized compounds against HK-2 cells was also detected. […] The SiHa,” for “The SiHa,”

For data set [6], the target named is T1, VEGFR-2 (KDR) protein kinase (Homo sapiens, UniProt P35968).
T1 construct: purchased BPS Biosciences, San Diego, CA, USA
Kind of data set: VEGFR-2 (KDR) Kinase Assay Kit enzyme inhibition assay. Type of data set: biochemical. Particulars: Kinase-Glo MAX, 30 °C 45 min, mean ± SD, n = 3. How it is done: Many studies have shown that abnormal VEGFR-2 signaling could induce proliferation of cervical squamous cell carcinoma cells, myeloid leukemia cancer cells, and melanoma cells. […] A VEGFR-2 (KDR) Kinase Assay Kit (BPS Biosciences, San Diego, CA, USA) was used to conduct a VEGFR-2 inhibition assay following the manufacturer’s protocol. Briefly, kinase buffer and ATP and PTK substrate (Poly-Glu,Tyr 4:1) were diluted with distilled water to prepare a master mix solution. The master mix solution, test sample, and VEGFR-2 (KDR) protein kinase (2 ng/μL) were added to a 96-well plate and incubated at 30 °C for 45 min. After incubation, Kinase-Glo™ MAX (BPS Biosciences) reagent was added to each well, and incubated for 15 min at room temperature. Then it was immediately detected with an ELISA reader. The experiments were replicated three times.

For data set [7], the system named is K562 cells. Kind of data set: Annexin V apoptosis assay by flow cytometry. The format is cell-based, human. From the text: Enhancing apoptotic cell death is a crucial way for anticancer drugs to eliminate cancer cells.
The sample was centrifuged to isolate the cells and the kit instructions were followed for subsequent processing. Finally, apoptosis was quantified using a flow cytometer (Cytek Northern Light 3 Laser 16V-14B-8R, Wuxi, China). The experiments were replicated three times.

In data set [8] the test system is K562 cells. The data set can be described thus: Cell cycle analysis, PI staining, flow cytometry. The format is cell-based, human. Particulars: 5 μM, 24 h. As to the method: Cytotoxic compounds often inhibit cell proliferation by arresting the cell cycle at a specific phase.
The sample was then centrifuged (2000 rpm for 5 min), and the supernatant was aspirated. The fixed cells were resuspended in 0.5 mL of PI solution, cultured at 37 °C in the dark for 30 min, and then cultured at 4 °C in the dark for another 30 min Finally, the cell cycle sample was determined with a flow cytometer (Cytek Northern Light 3 laser 16V-14B-8R, Wuxi, China). The experiments were replicated three times.

The subject of another data set is VEGFR-2. Particulars: reported chalcone VEGFR-2 inhibitors, Figure 1; cited from earlier work.
Setting [9] is: K562, 1.25, 2.5 and 5.0 μM, 24 h.

Where two headings read alike, the source gives them in different places.

T1 sequence (P35968 20-1356): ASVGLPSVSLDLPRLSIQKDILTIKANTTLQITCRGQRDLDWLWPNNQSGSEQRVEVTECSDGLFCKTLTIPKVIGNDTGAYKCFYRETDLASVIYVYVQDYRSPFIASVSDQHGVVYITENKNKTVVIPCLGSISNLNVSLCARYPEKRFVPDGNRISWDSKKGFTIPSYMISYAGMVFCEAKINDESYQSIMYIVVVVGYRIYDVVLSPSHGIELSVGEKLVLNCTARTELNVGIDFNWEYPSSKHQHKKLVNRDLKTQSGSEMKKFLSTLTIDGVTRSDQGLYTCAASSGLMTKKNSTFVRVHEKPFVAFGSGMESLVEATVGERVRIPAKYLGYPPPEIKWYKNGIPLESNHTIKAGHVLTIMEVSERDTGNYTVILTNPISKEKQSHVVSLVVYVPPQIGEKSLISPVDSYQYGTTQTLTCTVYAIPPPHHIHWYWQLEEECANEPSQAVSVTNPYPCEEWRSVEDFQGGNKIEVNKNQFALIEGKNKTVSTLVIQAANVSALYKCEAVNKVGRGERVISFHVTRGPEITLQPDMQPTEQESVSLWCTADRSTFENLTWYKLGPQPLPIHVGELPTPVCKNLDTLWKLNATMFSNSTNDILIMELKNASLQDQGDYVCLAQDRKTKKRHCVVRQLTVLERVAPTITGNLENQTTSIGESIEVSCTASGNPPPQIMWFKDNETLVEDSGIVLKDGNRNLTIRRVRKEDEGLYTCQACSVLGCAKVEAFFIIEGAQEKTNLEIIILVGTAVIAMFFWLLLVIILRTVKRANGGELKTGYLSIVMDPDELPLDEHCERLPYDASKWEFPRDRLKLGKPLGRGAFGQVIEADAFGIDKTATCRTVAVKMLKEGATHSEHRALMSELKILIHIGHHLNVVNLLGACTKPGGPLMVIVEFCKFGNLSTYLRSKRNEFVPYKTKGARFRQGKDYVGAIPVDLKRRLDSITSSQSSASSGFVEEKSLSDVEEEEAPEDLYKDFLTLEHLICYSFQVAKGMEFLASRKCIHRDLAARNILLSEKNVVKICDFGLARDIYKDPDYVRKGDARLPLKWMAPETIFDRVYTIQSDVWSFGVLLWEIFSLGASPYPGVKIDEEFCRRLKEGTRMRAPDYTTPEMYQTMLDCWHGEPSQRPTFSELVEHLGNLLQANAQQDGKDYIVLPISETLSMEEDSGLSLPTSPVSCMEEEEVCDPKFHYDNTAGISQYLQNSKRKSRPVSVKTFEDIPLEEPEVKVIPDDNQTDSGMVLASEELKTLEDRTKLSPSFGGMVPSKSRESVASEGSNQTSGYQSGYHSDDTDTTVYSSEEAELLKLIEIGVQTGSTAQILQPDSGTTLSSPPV

`O=C(Nc1ccc(C(=O)/C=C/c2cc(F)cc(F)c2)cc1)Nc1ccc(Cl)c(C(F)(F)F)c1` [Compound 2l, (E)-1-(4-chloro-3-(trifluoromethyl)phenyl)-3-(4-(3-(3,5-difluorophenyl)acryloyl)phenyl)urea]: the IC50 in data set [1] is 1.25 ± 0.13 µM; in [1] (Homo sapiens, SiHa, 48 h), 1.25 to 1.39 µM; in data set [2] it was 1.3 ± 0.07 µM; in data set [2] (Homo sapiens, K562, 48 h), 0.91 ± 0.07 µM; in data set [3], 1.39 ± 0.21 µM; in [3] (Mus musculus, B16, 48 h) it was 1.25 to 1.39 µM. Besides, the figures for the IC50 in data set [5] and in [6] were 25.4 ± 1.47 µM and 0.42 ± 0.03 µM, respectively. In addition, the selectivity ratio at 48 h was determined as 18.2 in data set [4] (human (HK-2), mouse (B16), HK-2 cells versus B16 cells, HK-2 vs B16, read-out: selectivity toward B16, fold decrease in cytotoxicity against HK-2); 19.5 in data set [4] (human, HK-2 cells versus K562 cells, HK-2 vs K562, read-out: selectivity toward K562, fold decrease in cytotoxicity against HK-2); 20.3 in [4] (human, HK-2 cells versus SiHa cells, HK-2 vs SiHa, read-out: selectivity toward SiHa, fold decrease in cytotoxicity against HK-2). In the data set with K562 cells [7] (Homo sapiens, K562, 1.25 μM, plot in Figure 2, read-out: Q4 viable cells), the viability at 1.25 µM came out at 92.8%. Moreover, in the data set with K562 cells [7] (Homo sapiens, K562, 2.5 μM, plot in Figure 2, read-out: Q4 viable cells), the viability at 2.5 µM came out at 90.5%. Besides, in the data set with K562 cells [7] (Homo sapiens, K562, 5.0 μM, plot in Figure 2, read-out: Q4 viable cells), the viability at 5 µM amounted to 38.8%. Moreover, the early apoptosis in the data set with K562 cells [7] (K562, 1.25 μM, 24 h) turned out to be 5.80%; in the data set with K562 cells [7] (K562, 2.5 μM, 24 h), 8.34%; with K562 cells [7] (K562, 5.0 μM, 24 h), 57.79%. The late apoptosis result in the data set with K562 cells [7] (setting [9]) is recorded as “increased in a dose-dependent manner”. The “necrosis of K562 cells” value with K562 cells [7] (setting [9]) is “Almost no necrosis”. Besides, in the data set with K562 cells [8] (DMSO 8.00%), the “percentage of K562 cells in the G2/M phase” value was 3.05%. In addition, the “percentage of K562 cells in the S phase” value with K562 cells [8] (DMSO 43.34%) was determined as 43.83%. Further, the “percentage of K562 cells in the G1 phase” value with K562 cells [8] (DMSO 48.66%) came out at 53.12%.

As for `CNC(=O)c1cc(Oc2ccc(C(=O)/C=C/c3cc(OC)c(OC)c(OC)c3)cc2)ccn1` [II], in the data set with VEGFR-2, the IC50 was 3.2 µM.

Turning to `COc1cc(/C=C/C(=O)c2ccc(N3CCNCC3)cc2)ccc1F` [I], in the data set with VEGFR-2, the IC50 was 0.57 µM.

The record behind these values is paper PMC12692968, “Design, Synthesis, Molecular Docking, and Anticancer Activity of Chalcone Derivatives as VEGFR-2 Inhibitors” (Molecules, 2025).
